Results taken from US20130259830A1, “CRTH2 MODULATORS” (Ironwood Pharmaceuticals, Inc., priority 2010, published 2013).

Assays:
CRTH2 [1] = biological target: T1, CRTH2 (Homo sapiens, UniProt Q9Y5Y4); experiment: DPBS CD11b antagonist assay (CD11b expression in eosinophils challenged with 15R-Methyl-PGD2); type: cell-based; conditions: polymorphonuclear cells in PBS with CaCl2/MgCl2; agonist 15R-Methyl-PGD2 10 nM; eosinophils gated by flow cytometry
T1 construct: endogenous in cells; host or cells: eosinophils in human whole blood
T1 sequence (Q9Y5Y4 1-395): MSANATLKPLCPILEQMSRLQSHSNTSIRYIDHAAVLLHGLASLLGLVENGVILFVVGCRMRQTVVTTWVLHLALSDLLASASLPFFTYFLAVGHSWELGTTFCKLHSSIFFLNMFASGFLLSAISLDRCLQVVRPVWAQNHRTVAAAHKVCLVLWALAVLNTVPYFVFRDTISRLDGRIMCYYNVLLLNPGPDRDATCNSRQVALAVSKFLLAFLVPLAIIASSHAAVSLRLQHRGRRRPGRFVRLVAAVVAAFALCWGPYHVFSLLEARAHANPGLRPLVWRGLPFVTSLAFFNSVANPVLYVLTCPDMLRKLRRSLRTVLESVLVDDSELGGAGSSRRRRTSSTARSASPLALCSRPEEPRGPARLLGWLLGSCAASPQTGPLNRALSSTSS
Description: DPBS CD111b Antagonist Assay.
The potential CRTH2 antagonist, activity of certain compounds was tested using a CD11b expression assay using essentially the method described by Monneret et al. (J Pharmacol Exp Ther 304:349-55, 2003). Briefly, polymorphonuclear cells (0.5 ml; 10^6/ml cells) in PBS containing 0.9 mM CaCl2 and 0.5 mM MgCl2) were preincubated with various concentrations of test compounds at room temperature for 10 minutes before they were challenged with the agonist 15R-Methyl-PGD2 (10 nM). The incubations were terminated by the addition of ice-cold FACSFlow (BD Biosciences; Cat#342003) and centrifugation (400 g for 5 minutes at 4° C.). The cells were then incubated for 30 minutes at 4° C. with a mixture of PE-labeled mouse anti-human VLA-4 (5 μl; BD Biosciences) and FITC-labeled mouse anti-human CD11b (10 μl; Beckman Coulter). The cells were then incubated with Optilyse C (0.25 ml; Beckman Coulter) for 15 minutes, centrifuged, and then fixed in PBS (0.4 ml; calcium and magnesium free) containing 1% formaldehyde. The distribution of fluorescence intensities among 60,000 cells was measured by flow cytometry. Eosinophils were gated out on the basis of their granularity (high side scatter) and labeling with VLA-4 (PE fluorescence). CD11b was then measured in the eosinophil region on the basis of fluorescence due to FITC. All data were corrected for the value obtained for the corresponding isotope control antibody.

CRTH2 [2] = biological target: T1, CRTH2; experiment: Human whole blood CD11b antagonist assay (CD11b expression in eosinophils challenged with 15-R-methyl-PGD2); type: cell-based; conditions: 37° C. 10 minutes preincubation, agonist 15R-Methyl-PGD2 10 nM, eosinophils gated by flow cytometry
Description: Human Whole Blood […] Antagonist Assay (Modified from Nicholson, et al. Pulmonary Pharmacology and Therapeutics: 20 (2007); 52-59).
The potential CRTH2 antagonist activity of certain compounds was tested in human whole blood using an assay that tests the ability of the compounds to block the CD11b expression in eosinophils by 15-R-methyl-PGD2. A CRTH2 antagonist should block CD11b expression by subsequently added 15-Methyl-PGD2. Human whole blood (200 μL) was incubated at 37° C. for 10 minutes in the presence of various concentrations of test compounds before being challenged with the agonist 1-5R-Methyl-PGD2 (10 nM). Reactions were terminated by the addition of ice-cold PBS+0.5% BSA+2 mM EDTA (1 mL) and centrifugation (300×g for 5 minutes at 4° C.) Cells were then incubated at 4° C. for 10 min in the presence of human IgG. Cells were then incubated for 30-45 min with a mixture of PE-Cy5-labeled mouse anti-human CD16 (10 ul; BD Biosciences) and FITC-labeled mouse anti-human CD11b (10 μL; Beckman Coulter.) After rinsing (1 mL ice-cold PBS+0.5% BSA+2 mM EDTA), red blood cells were lysed by the addition of 1 mL ice-cold H2O to the cell pellet for 30 sec-1 min immediately followed by the addition of 3.5% NaCl (300 μL.) Cells were then rinsed (2×−1 ml ice cold PBS+0.5% BSA+2m MEDTA) and fixed in PBS containing 1% formaldehyde. The distribution of fluorescence intensities was measured by flow cytometry. Eosinophils were gated out on the basis of their granularity (high side scatter) and absence of CD-16. CD11b was then measured on this eosinophil population on the basis of fluorescence due to FITC.

Row | Compound | IC50 (CRTH2 [1]) | IC50 (CRTH2 [2])
1 | Cc1c(Cc2ccccc2NS(=O)(=O)c2ccc(C(F)(F)F)cc2)c2c(n1CC(=O)O)CC(C)(C)CC2=O [Compound I-25, 2-(2,6,6-Trimethyl-4-oxo-3-(2-(4-(trifluoromethyl)phenylsulfonamido)benzyl)-4,5,6,7-tetrahydro-1H-indol-1-yl)acetic acid] | < 1 nM | 20 to 100 nM
2 | Cc1c(Cc2cccnc2S(=O)(=O)c2ccccc2)c2c(n1CC(=O)O)CC(C)(C)CC2=O [Compound I-3, 2-(2,6,6-trimethyl-4-oxo-3-((2-(phenylsulfonyl)pyridin-3-yl)methyl)-4,5,6,7-tetrahydro-1H-indol-1-yl)acetic acid] | < 1 nM | 5 to 20 nM
3 | Cc1c(Cc2cccnc2S(=O)(=O)c2ccc(Cl)cc2)c2c(n1CC(=O)O)CC(C)(C)CC2=O [Compound I-15, 2-(3-((2-(4-Chlorophenylsulfonyl)pyridin-3-yl)methyl)-2,6,6-trimethyl-4-oxo-4,5,6,7-tetrahydro-1H-indol-1-yl)acetic acid] | < 1 nM | 5 to 20 nM
4 | CCOC(=O)Cn1c(C)c(Cc2cccnc2S(=O)(=O)c2ccccc2)c2c1CC(C)(C)CC2=O [Compound I-9, ethyl 2-(2,6,6-trimethyl-4-oxo-3-((2-(phenylsulfonyl)pyridin-3-yl)methyl)-4,5,6,7-tetrahydro-1H-indol-1-yl)acetate] | 100 to 500 nM | 500 to 3000 nM
5 | Cc1c(Cc2ccccc2NS(=O)(=O)c2ccccc2)c2c(n1CC(=O)O)CC(C)(C)CC2=O [Compound I-24, 2-(2,6,6-Trimethyl-4-oxo-3-(2-(phenylsulfonamido)benzyl)-4,5,6,7-tetrahydro-1H-indol-1-yl)acetic acid] | < 1 nM | 5 to 20 nM
6 | Cc1c(Cc2ccccc2NS(=O)(=O)c2ccc(F)cc2F)c2c(n1CC(=O)O)CC(C)(C)CC2=O [Compound I-22, 2-(3-(2-(2,4-Difluorophenylsulfonamido)benzyl)-2,6,6-trimethyl-4-oxo-4,5,6,7-tetrahydro-1H-indol-1-yl)acetic acid] | < 1 nM | 20 to 100 nM
7 | CCOC(=O)Cn1c(C)c(Cc2cccnc2S(=O)(=O)c2ccc(F)cc2F)c2c1CC(C)(C)CC2=O [Compound I-18, Ethyl 2-(3-((2-(2,4-difluorophenylsulfonyl)pyridin-3-yl)methyl)-2,6,6-trimethyl-4-oxo-4,5,6,7-tetrahydro-1H-indol-1-yl)acetate] | 100 to 500 nM | 500 to 3000 nM
8 | Cc1c(Cc2cccnc2S(C)(=O)=O)c2c(n1CC(=O)O)CC(C)(C)CC2=O [Compound I-32, 2-(2,6,6-Trimethyl-3-((2-(methylsulfonyl)pyridin-3-yl)methyl)-4-oxo-4,5,6,7-tetrahydro-1H-indol-1-yl)acetic acid] | 500 to 3000 nM | 500 to 3000 nM
9 | COc1ccc(S(=O)(=O)c2ncccc2Cc2c3c(n(CC(=O)O)c2C)CC(C)(C)CC3=O)cc1F [Compound I-21, 2-(3-((2-(3-Fluoro-4-methoxyphenylsulfonyl)pyridin-3-yl)methyl)-2,6,6-trimethyl-4-oxo-4,5,6,7-tetrahydro-1H-indol-1-yl)acetic acid] | < 1 nM | 20 to 100 nM
10 | CCOC(=O)Cn1c(C)c(Cc2cccnc2S(=O)(=O)c2ccc(C(F)(F)F)cc2)c2c1CC(C)(C)CC2=O [Compound I-10, Ethyl 2-(2,6,6-trimethyl-4-oxo-3-((2-(4-(trifluoromethyl)phenylsulfonyl)pyridin-3-yl)methyl)-4,5,6,7-tetrahydro-1H-indol-1-yl)acetate] | 1 to 5 nM | 100 to 500 nM
11 | Cc1c(Cc2cc(OCC(F)(F)F)ccc2NS(=O)(=O)c2ccccc2)c2c(n1CC(=O)O)CC(C)(C)CC2=O [Compound I-36, 2-(2,6,6-Trimethyl-4-oxo-3-(2-(phenylsulfonamido)-5-(2,2,2-trifluoroethoxy)benzyl)-4,5,6,7-tetrahydro-1H-indol-1-yl)acetic acid] | 1 to 5 nM | 20 to 100 nM
12 | CCOC(=O)N1CCN(S(=O)(=O)c2ccc(Cc3c4c(n(CC(=O)O)c3C)CCOC4)cc2)CC1 [Compound I-2, 2-(3-(4-(4-(Ethoxycarbonyl)piperazin-1-ylsulfonyl)benzyl)-2-methyl-6,7-dihydropyrano[4,3-b]pyrrol-1(4H)-yl)acetic acid] | 1 to 5 nM | 100 to 500 nM
13 | Cc1c(Cc2ccccc2NS(=O)(=O)c2ccc(C(C)C)cc2)c2c(n1CC(=O)O)CC(C)(C)CC2=O [Compound I-27, 2-(3-(2-(4-Isopropylphenylsulfonamido)benzyl)-2,6,6-trimethyl-4-oxo-4,5,6,7-tetrahydro-1H-indol-1-yl)acetic acid] | < 1 nM | 20 to 100 nM
14 | CCOC(=O)Cn1c(C)c(Cc2cccnc2S(=O)(=O)c2ccc(C)cc2)c2c1CC(C)(C)CC2=O [Compound I-16, Ethyl 2-(2,6,6-trimethyl-4-oxo-3-((2-tosylpyridin-3-yl)methyl)-4,5,6,7-tetrahydro-1H-indol-1-yl)acetate] | 20 to 100 nM | 500 to 3000 nM

Now from value to compound:

Row | IC50 (CRTH2 [1]) | IC50 (CRTH2 [2]) | Compound
15 | < 1 nM | 5 to 20 nM | Cc1c(Cc2ccccc2S(=O)(=O)N2CCCC2)c2c(n1CC(=O)O)CCNC2=O [Compound I-39, 2-(2-Methyl-4-oxo-3-(2-(pyrrolidin-1-ylsulfonyl)benzyl)-4,5,6,7-tetrahydro-1H-pyrrolo[3,2-c]pyridin-1-yl)acetic acid]
16 | < 1 nM | 5 to 20 nM | Cc1c(Sc2ccccc2NS(=O)(=O)c2ccccc2)c2c(n1CC(=O)O)CC(C)(C)CC2 [Compound I-52, 2-(2,6,6-trimethyl-3-(2-(phenylsulfonamido)phenylthio)-4,5,6,7-tetrahydro-1H-indol-1-yl)acetic acid]
17 | < 1 nM | < 1 nM | Cc1c(Cc2sccc2S(=O)(=O)c2ccccc2)c2c(n1CC(=O)O)CC(C)(C)CC2=O [Compound I-42]
18 | < 1 nM | 1 to 5 nM | Cc1c(Cc2ccccc2NS(=O)(=O)c2ccc(O)cc2)c2c(n1CC(=O)O)CC(C)(C)CC2=O [Compound I-48, 2-(3-(2-(4-Hydroxyphenylsulfonamido)benzyl)-2,6,6-trimethyl-4-oxo-4,5,6,7-tetrahydro-1H-indol-1-yl)acetic acid]
19 | 1 to 5 nM | 100 to 500 nM | Cc1c(Cc2ccccc2NS(=O)(=O)N2CCCC2)c2c(n1CC(=O)O)CC(C)(C)CC2=O [Compound I-40, 2-(2,6,6-Trimethyl-4-oxo-3-(2-(pyrrolidine-1-sulfonamido)benzyl)-4,5,6,7-tetrahydro-1H-indol-1-yl)acetic acid]
20 | < 1 nM | 20 to 100 nM | Cc1c(Cc2cc3ccccc3n2S(=O)(=O)N2CCOCC2)c2c(n1CC(=O)O)CC(C)(C)CC2=O [Compound I-37]
21 | 1 to 5 nM | 100 to 500 nM | Cc1c(Cc2ccccc2NS(=O)(=O)N2CCCC2)c2c(n1CC(=O)O)CC(C)(C)CC2=O [Compound I-44]
22 | 100 to 500 nM | > 3000 nM | Cc1c(Cc2cccc(N(C)S(=O)(=O)N3CCCC3)c2)c2c(n1CC(=O)O)CC(C)(C)CC2=O [Compound I-51, 2-(2,6,6-Trimethyl-3-(3-(N-methylpyrrolidine-1-sulfonamido)benzyl)-4-oxo-4,5,6,7-tetrahydro-1H-indol-1-yl)acetic acid]
